Laboratory results taken from patent US10246442B2, “4-Aminoquinazolin compounds as prolyl hydroxylase inhibitors” (JANSSEN PHARMACEUTICA NV, priority 2011, dated 2019).

How the values were obtained:
[1] = target: PHD2181-417 (Homo sapiens (Human), UniProt Q9GZT9); assay: PHD enzymatic assay ([14C]-succinic acid production); type: biochemical; details: purified PHD2181-417, HIF-1α peptide substrate, 30 min pre-incubation; average of results
Description: Expression and Purification of PHD2181-417
The human PHD2 expression construct containing amino acids 181-417 of GenBank Accession ID NM_022051 was cloned into a pBAD vector (Invitrogen), incorporating both an N-terminal histidine tag and a Smt3-tag, both of which are cleaved by Ulp1. Protein production was achieved by expression in BL21 cells grown in Terrific Broth containing 100 μg/ml ampicillin. Cell cultures were inoculated at 37° C. and grown to an OD600 of 0.8. Cultures were induced with 0.1% arabinose and grown overnight at 20° C. with continuous shaking at 225 rpm. Cells were then harvested by centrifugation and stored at −80° C. Cell pellets were suspended in Buffer A (50 mM Tris-HCl pH 7.2, 100 mM NaCl, 100 mM L-arginine, 1 mM TCEP, 0.05% (w/v) NP-40, 50 mM imidazole) followed by the addition of lysozyme and benzonase. Cells were lysed by sonication and the lysate was cleared by centrifugation (15,000 rpm, 90 min, 4° C.). The protein was purified by nickel affinity chromatography using a HisTrap Crude FF column (GE Healthcare). Samples were eluted in Buffer A with a 50-200 mM imidazole gradient. Cleavage of the Smt tag with Ulp1 protease was achieved via overnight incubation with dialyzing against Buffer A. The PHD2181-417 sample was then passed over a second HisTrap Crude FF column (GE Healthcare) to remove uncleaved protein. The flow-through was then dialyzed into 50 mM MES pH 6.0, 1 mM TCEP, 5 mM NaCl for ion exchange chromatography on a HiTrap SP Cation Exchange column (GE Healthcare). The PHD2181-417 protein was eluted with a 0-0.2 M NaCl gradient. Fractions were pooled for further purification by size exclusion chromatography over a Superdex 75 Size Exclusion Column (GE Healthcare). Final protein was concentrated to 4 mg/ml and dialyzed in 10 mM PIPES pH 7.0, 100 mM NaCl, 0.5 mM TCEP.
(10 μM, California Peptide Research Inc., Napa, Calif.), and [5-^14C]-2-oxoglutaric acid (50 mCi/mmol, Moravek Chemicals, Brea, Calif.) in reaction buffer (40 mM Tris-HCl, pH 7.5, 0.4 mg/ml catalase, 0.5 mM DTT, 1 mM ascorbate) for 10 minutes. Compounds were pre-incubated for 30 min before starting the reaction (all test compounds were dissolved at 10 mM in 100% DMSO (w/v) and were tested with final compound concentrations at 100 μM in 1% DMSO (w/v)). The reaction was stopped by addition of 50 μl of 70 mM H3PO4 and 50 μl of 500 mM NaH2PO4, pH 3.2. Detection of [^14C]-succinic acid was achieved by separating from [5-^14C]-2-oxoglutaric acid by incubating the reaction mixture with 100 μl of 0.16 M DNP prepared in 30% perchloric acid. Next, 50 μl of unlabeled 20 mM 2-oxoglutaric acid/20 mM succinic acid, serving as carrier for the radioactivity, was added to the mixture, and was allowed to proceed for 30 minutes at room temperature. The reaction was then incubated with 50 μl of 1 M 2-oxoglutaric acid for 30 additional minutes at room temperature to precipitate the excess DNP. The reaction was then centrifuged at 2800×g for 10 minutes at room temperature to separate [^14C]-succinic acid in the supernatant from the precipitated [^14C]-dinitrophenylhydrazone. Fractions of the supernatant (400 μI) were counted using a beta counter (Beckman Coulter, Fullerton, Calif.). Inhibition of PHD2181-417 activity was measured as a decrease in succinic acid production. The IC50 values were estimated by fitting the data to a three-parameter logistic function using GraphPad Prism, version 4.02 (Graph Pad Software, San Diego, Calif.).

[2] = system: Erythropoietin secretion, Hep-3B cells; assay: Cellular assay: EPO secretion in Hep-3B cells; type: cell-based; details: Homo sapiens, Hep3B, 100 μM compound, 24 hours, percent of EPO secretion relative to assay control compound 7-[(4-Chloro-phenyl)-(5-methyl-isoxazol-3-ylamino)-methyl]-quinolin-8-ol, read-out: Cellular % EPO Stimulation
Description: Hep-3B cells (ATCC, Manassas, Va.) were plated in 96-well plates at 20,000 cells per well in 100 μl of DMEM containing 10% fetal bovine serum, 1% non-essential amino acids, 50 IU/mL of penicillin and 50 μg/mL of streptomycin (all cell culture reagents from Invitrogen, Carlsbad, Calif.). Twenty-four hours after plating, compounds were added and incubated for an additional 24 hours. All compounds were tested with final compound concentrations at 100 μM. Fifty microliters of the supernatant was then transferred to a human Hypoxia assay kit (Meso-Scale Discovery, Gaithersburg, Md.). Erythropoietin in the supernatant was detected according to the manufacturer's instructions as follows. EPO detection plates were blocked with 3% BSA in PBS overnight and 50 μl of the supernatant was incubated at room temperature in an orbital shaker for 2 h. Twenty-five microliters of 0.5 μg/ml anti-EPO detection antibody was added for 2 hours at room temperature in an orbital shaker. After 3 washes in PBS, 150 μl of 1× read buffer is added and the plate is then read on the MSD SECTOR instrument. Data was analyzed by determining the percent of EPO secretion in the presence of 100 μM compound relative to an assay control compound, 7-[(4-Chloro-phenyl)-(5-methyl-isoxazol-3-ylamino)-methyl]-quinolin-8-ol.

PHD2181-417, sequence (Q9GZT9 181-417): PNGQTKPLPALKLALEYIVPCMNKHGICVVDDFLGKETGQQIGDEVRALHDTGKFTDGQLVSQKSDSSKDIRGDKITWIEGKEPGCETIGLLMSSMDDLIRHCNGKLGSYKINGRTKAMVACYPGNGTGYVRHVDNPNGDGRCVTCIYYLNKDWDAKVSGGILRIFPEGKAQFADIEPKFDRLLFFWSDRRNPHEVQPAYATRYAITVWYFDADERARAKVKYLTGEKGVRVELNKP

SMILES	Enzyme pIC50 [1]	activation at 100 µM [2]
O=C(O)c1cnn(-c2nc(NC3CC3)c3cc(Oc4ccccc4)ccc3n2)c1 [Example 75, 1-(4-(Cyclopropylamino)-6-phenoxyquinazolin-2-yl)-1H-pyrazole-4-carboxylic acid]	6.8	20%
O=C(O)c1cnn(-c2nc(N3CCCCCC3)c3cc(C4CCCCC4)ccc3n2)c1 [Example 37, 1-(4-(Azepan-1-yl)-6-cyclohexylquinazolin-2-yl)-1H-pyrazole-4-carboxylic acid]	7.1	17%
O=C(O)c1cnn(-c2nc(N3CCCC3)c3cc(Oc4ccccc4)ccc3n2)c1 [Example 73, 1-(6-Phenoxy-4-(pyrrolidin-1-yl)quinazolin-2-yl)-1H-pyrazole-4-carboxylic acid]	7.2	36%
CC(C)c1cc2c(N3CCOCC3)nc(-n3cc(C(=O)O)cn3)nc2cc1Cl [Example 160, 1-(7-chloro-6-isopropyl-4-morpholinoquinazolin-2-yl)-1H-pyrazole-4-carboxylic acid]	6.8	28%
CCN(CC)c1nc(-n2cc(C(=O)O)cn2)nc2ccc(Oc3ccc(Cl)cc3)cc12 [Example 60, 1-(6-(4-Chlorophenoxy)-4-(diethylamino)quinazolin-2-yl)-1H-pyrazole-4-carboxylic acid]	7.3	22%
CNc1nc(-n2cc(C(=O)O)cn2)nc2ccc(C3CCCCC3)cc12 [Example 22, 1-(6-Cyclohexyl-4-methylamino-quinazolin-2-yl)-1H-pyrazole-4-carboxylic acid]	7.1	48%
CC(C)c1ccc2nc(-n3cc(C(=O)O)cn3)nc(N3CCCC3)c2c1 [Example 187, 1-(6-isopropyl-4-(pyrrolidin-1-yl)quinazolin-2-yl)-1H-pyrazole-4-carboxylic acid]	6.8	28%
CNc1nc(-n2cc(C(=O)O)cn2)nc2cc(F)c(Oc3c(C)cccc3C)cc12 [Example 2, 1-[6-(2,6-Dimethyl-phenoxy)-7-fluoro-4-methylamino-quinazolin-2-yl]-1H-pyrazole-4-carboxylic acid]	7.2	10%
CC(C)c1cc2c(N(C)C)nc(-n3cc(C(=O)O)cn3)nc2cc1Cl [Example 161, 1-(7-chloro-4-(dimethylamino)-6-isopropylquinazolin-2-yl)-1H-pyrazole-4-carboxylic acid]	7.4	32%
Cc1cccc(C)c1Oc1cc2c(NC3CC3)nc(-n3cc(C(=O)O)cn3)nc2cc1F [Example 14, 1-((4-Cyclopropylamino)-6-(2,6-dimethylphenoxy)-7-fluoroquinazolin-2-yl)-1H-pyrazole-4-carboxylic acid]	7.1	86%
CCN(C)c1nc(-n2cc(C(=O)O)cn2)nc2ccc(OC3CCCCC3)cc12 [Example 177, 1-(6-(cyclohexyloxy)-4-(ethyl(methyl)amino)quinazolin-2-yl)-1H-pyrazole-4-carboxylic acid]	7.3	56%
CCCNc1nc(-n2cc(C(=O)O)cn2)nc2cc(F)c(Oc3c(C)cccc3C)cc12 [Example 8, 1-[6-(2,6-Dimethyl-phenoxy)-7-fluoro-4-propylamino-quinazolin-2-yl]-1H-pyrazole-4-carboxylic acid]	7.2	59%
N#CC1CCN(c2nc(-n3cc(C(=O)O)cn3)nc3ccc(Oc4ccc(Cl)cc4)cc23)CC1 [Example 65, 1-(6-(4-Chlorophenoxy)-4-(4-cyanopiperidin-1-yl)quinazolin-2-yl)-1H-pyrazole-4-carboxylic acid]	7.4	77%
CCN(C)c1nc(-n2cc(C(=O)O)cn2)nc2cc(F)c(OC3CCCCC3)cc12 [Example 104, 1-(7-fluoro-6-(cyclohexyloxy)-4-(ethyl(methyl)amino)quinazolin-2-yl)-1H-pyrazole-4-carboxylic acid]	7.1	49%
